Source: patent US7105184B2, “Cosmetic and/or dermopharmaceutical preparations containing leaf extracts of the plant Argania spinosa” (Cognis France S.A., priority 2000, dated 2006)

Key:
[1] = target: collagenase from Chlostridium histolyticum; assay: Collagenase inhibition, chromogenic synthetic substrate C (FALGPA); format: biochemical; details: incubation 30 min, 20° C., OD at 234 nm
Protocol: (§1) The biochemical test of collagenase inhibition was realized with a collagenase from Chlostridium histolyticum in a chromogenic synthetic substrate C: FALGPA (furylacryloyl-Leu-Gly-Pro-Ala), a specific substrate for collagenase, which […] by the enzyme. This substrate was obtained from SIGMA.
(§2) The amount of extracts used was 0.3% by weight, and the incubation time was 30 min (20° C.). The inhibition was investigated by determining the optical density “OD” at 234 nm.

[2] = system: collagenase from Chlostridium histolyticum; assay: Collagenase inhibition, substrate C FALGPA; format: biochemical; details: 30 min, 20° C.
Protocol: as §1, §2

[3] = system: Human MMP-1; assay: Release of MMP-1 from dermal fibroblasts with and without UVA radiation; format: cell-based; details: concentration 0.1 μM
From the text: The ability of leaf extracts from Argania spinosa to reduce the toxic effect of UVA rays was investigated. This in vitro test investigates the ability to reduce the content of matrix metalloproteinases, such as, for example, MMP-1, which are released by human fibroblasts following UVA radiation. More MMP are released under the influence of UVA radiation. UVA rays were chosen as the model since they penetrate into the dermis, where they induce oxidative stress, which accelerates skin aging. Furthermore, it is already known that the release of matrix metalloproteinases increases during the normal aging process of the skin. Inhibition of the MMP would thus counteract the aging process of the skin. The in vitro system used was a culture of dermal fibroblasts, and the parameter determined was the release of MMP-1 from these fibroblasts under the influence of UV radiation. To carry out the experiment, a fibroblast culture was prepared in a defined culture medium (DMEM) with fetal calf serum and inoculated 2–3 days later with the test substances. […] The abbreviation TIMP is understood as meaning a naturally occurring inhibitor of the metalloproteinase under the name “tissue inhibitor of matrix metalloproteinase”. The MMP and TIMP were determined using two different kits, which are commercially available under the name RPN2610 and RPN2611 from Amersham. […]

[4] = system: TIMP-1; assay: Content of TIMP-1 in dermal fibroblast culture with and without UVA radiation; format: cell-based, human; details: concentration 0.1 μM
Protocol: To carry out the experiment, a fibroblast culture was prepared in a defined culture medium (DMEM) with fetal calf serum and inoculated 2–3 days later with the test substances. […] The abbreviation TIMP is understood as meaning a naturally occurring inhibitor of the metalloproteinase under the name “tissue inhibitor of matrix metalloproteinase”. The MMP and TIMP were determined using two different kits, which are commercially available under the name RPN2610 and RPN2611 from Amersham. The data given is the amount of MMP-1 and TIMP-1 in ng/ml from a test series with triple determination.

[5] = system: TIMP-1 in human dermal fibroblast culture; assay: Content of TIMP-1 in supernatant of dermal fibroblasts with and without UVA radiation; format: cell-based
From the text: (§3) The ability of leaf extracts from Argania spinosa to reduce the toxic effect of UVA rays was investigated. This in vitro test investigates the ability to reduce the content of matrix metalloproteinases, such as, for example, MMP-1, which are released by human fibroblasts following UVA radiation. More MMP are released under the influence of UVA radiation. UVA rays were chosen as the model since they penetrate into the dermis, where they induce oxidative stress, which accelerates skin aging. Furthermore, it is already known that the release of matrix metalloproteinases increases during the normal aging process of the skin. Inhibition of the MMP would thus counteract the aging process of the skin.
(§4) The in vitro system used was a culture of dermal fibroblasts, and the parameter determined was the release of MMP-1 from these fibroblasts under the influence of UV radiation.
(§5) To carry out the experiment, a fibroblast culture was prepared in a defined culture medium (DMEM) with fetal calf serum and inoculated 2–3 days later with the test substances. […] After the end of the irradiation, the fibroblast culture was incubated again for 2 days, and then, on a sample of the supernatant of the culture solution, the content of MMP-1 and TIMP-1 was determined. […]
(§6) The MMP and TIMP were determined using two different kits, which are commercially available under the name RPN2610 and RPN2611 from Amersham. […]

[6] = system: MMP-1 released by human dermal fibroblasts; assay: Release of MMP-1 by dermal fibroblasts with and without UVA radiation; format: cell-based
From the text: as §3, §4, §5, §6

[7] = system: tyrosinase; assay: Tyrosinase inhibition in tubo; format: biochemical; details: L-DOPA substrate; dopachrome optical density 475 nm; concentration for 50% inhibition
Protocol: (§8) Tyrosinase inhibition: L-DOPA was mixed with tyrosinase and the extract to be tested. The optical density of the dopachrome was analyzed at 475 nm. The kinetics were then investigated and the concentration for a 50% strength inhibition (EC50) was determined.

[8] = system: B16 melanocytes; assay: Inhibition of melanogenesis on B16 melanocytes; format: cell-based; details: concentration 0.0003% by wt.; ratio of proportion of proteins to content of melanin
Protocol: 2. Inhibition of melanogenesis on B16 melanocytes: The B16 melanocytes are cultivated in a defined medium (DMEM with 10% fetal calf serum) and incubated for 3 days at 37° C. and 5% CO2. The growth medium was replaced by the defined medium without calf serum, which comprised a certain content of the extracts to be tested. After further incubation for 3 days, the proportion of intact cells was determined via the content of cell proteins in accordance with the Bradford method (Anal. Biochem. 72, 248–254, 1976), and the content of melanin formed was determined by analyzing the optical density at 475 nm in accordance with the method described by Ando et al. 17th IFSCC Congress—Yokohama, 2, 909–918, 1992.
The results were determined as activity index in the ratio of proportion of proteins to content of melanin: the greater the index, the higher the inhibition activity and the lower the stimulation of melanogenesis.

[9] = target: pancreas elastase; assay: Inhibition of the elastase activity; format: biochemical; details: chromogenic synthetic substrate A; 30 min, 20° C.
pancreas elastase, sequence (Q9UNI1 19-258): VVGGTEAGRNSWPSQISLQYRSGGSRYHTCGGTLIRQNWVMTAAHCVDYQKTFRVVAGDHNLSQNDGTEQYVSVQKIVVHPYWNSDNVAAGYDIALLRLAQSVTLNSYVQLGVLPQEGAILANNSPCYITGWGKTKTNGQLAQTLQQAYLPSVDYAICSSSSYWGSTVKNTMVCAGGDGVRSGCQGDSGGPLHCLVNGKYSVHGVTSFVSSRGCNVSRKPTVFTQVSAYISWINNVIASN
Protocol: (§7) Serine proteases, such as, for example, elastase or collagenase, bring about the degradation of elastin, proteoglycans and collagen and thus cause a weakening of the connective tissue. In the following test, the inhibiting properties of the extracts toward a pancreas elastase were investigated in two systems, firstly in a chromogenic synthetic substrate A and secondly in a natural substrate B (elastin/Congo Red). The amount of extracts used was 0.3% by weight, and the incubation time was 30 min (20° C.). The inhibition was monitored photometrically at 410 and 520 nm, and the standard used was α1-antitrypsin ([…]).

[10] = target: pancreas elastase (Homo sapiens, UniProt Q9UNI1); assay: Inhibition of the elastase activity; format: biochemical; details: natural substrate B (elastin/Congo Red); 30 min, 20° C.
pancreas elastase (Homo sapiens, UniProt Q9UNI1), sequence (Q9UNI1 19-258): as above
Protocol: as §7

[11] = target: Tyrosinase; details: concentration for 50% inhibition; L-DOPA; dopachrome at 475 nm
Protocol: as §8

## N[C@@H](CS)C(=O)O [Cystein]
[1]
  IC50 (Collagenase inhibition): IC50 = 1.56%
[2]
  Collagenase inhibition IC50, Substrate C: IC50 = 1.56%

## C[C@@H]1C[C@H]2[C@@H]3CCC4=CC(=O)C=C[C@]4(C)[C@@]3(F)[C@@H](O)C[C@]2(C)[C@@]1(O)C(=O)CO [Dexamethasone, dexamethasone]
[3]; UVA 20 J/cm^2
  MMP-1 in ng/ml: 7 ng/mL
[3]; without UVA radiation
  MMP-1 in ng/ml: 2 ng/mL
[4]; UVA 20 J/cm^2
  TIMP-1 in ng/ml: 19 ng/mL
[4]; without UVA radiation
  TIMP-1 in ng/ml: 39 ng/mL

## C[C@@H]1C[C@H]2[C@@H]3CCC4=CC(=O)C=C[C@]4(C)[C@@]3(F)[C@@H](O)C[C@]2(C)[C@@]1(O)C(=O)CO [Dexamethasone]
[5]
  content of TIMP-1 (in words): reduction in the content of TIMP-1
[6]
  content of MMP-1 (in words): content of MMP-1 was already reduced

## Oc1ccc(O)cc1 [Hydroquinone, hydroquinone]
[7]
  Tyrosinase in tubo EC50: EC50 = 0.025%
[8]
  Melanin synthesis Index: 2.21

## α1-antitrypsin
[9]
  Elastase inhibition IC50, Substrate A: IC50 = 0.01%
[10]
  Elastase inhibition IC50, Substrate B: IC50 = 0.034%

## Oc1ccc(O)cc1 [Hydroquinone]
[11]
  EC50 (Tyrosinase in tubo): EC50 = 0.025%
